From patent US20230312587A1, “PTERIDINONE COMPOUNDS AND USES THEREOF” (Vertex Pharmaceutical Incorporated, priority 2018, published 2023)
Where two headings read alike, the source gives them in different places.

Test system: β-catenin-TCF-mediated reporter transcription activity in Colo 205 cells
Test: Colo 205 reporter assay (TCF/LEF luciferase)
Format: cell-based
Settings: Colo 205 TCF/LEF luciferase reporter, five hours after addition of compound, read-out: TCF reporter Colo205 IC50
Outline: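 Luciferase signal from a TCF/LEF-driven reporter, stably integrated in Colo 205 colon cancer cells, was measured 5 h after compound addition.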

`COCC1(C)C(=O)Nc2c(C)nc(NCc3cnn(Cc4ccc(C(F)(F)F)nc4)c3)nc2N1C` (stereo not drawn) [Compound 707, 7-(methoxymethyl)-4,7,8-trimethyl-2-(((1-((6-(trifluoromethyl)pyridin-3-yl)methyl)-1H-pyrazol-4-yl)methyl)amino)-7,8-dihydropteridin-6(5H)-one] was tested, and the IC50 was 300 to 1000 nM.
`Cc1nc(N[C@H]2C[C@H](Oc3cc(F)c(F)cc3F)C2)nc2c1N(C)C(=O)[C@H](C)N2C` [Compound 294, (7S)-4,5,7,8-tetramethyl-2-((trans-3-(2,4,5-trifluorophenoxy)-cyclobutyl)amino)-7,8-dihydropteridin-6(5H)-one] gave an IC50 (Homo sapiens, COLO 205, 5 h) of less than 300 nM.
Work on `COc1ccc(O[C@H]2C[C@H](Nc3nc(C)c4c(n3)N(C)[C@@H](C)C(=O)N4)C2)c(F)c1` [Compound 354, (7S)-2-((trans-3-(2-fluoro-4-methoxyphenoxy)cyclobutyl)amino)-4,7,8-trimethyl-7,8-dihydropteridin-6(5H)-one] yielded an IC50 (Homo sapiens, COLO 205, 5 h) of 1000 to 5000 nM.
With `Cc1nc(NC2CN(C(=O)CC3CC(F)(F)C3)C2)nc2c1NC(=O)[C@H](C(C)C)N2C` [Compound 606, (S)-2-((1-(2-(3,3-difluorocyclobutyl)acetyl)azetidin-3-yl)amino)-7-isopropyl-4,8-dimethyl-7,8-dihydropteridin-6(5H)-one] the IC50 (Homo sapiens, COLO 205, 5 h) was 300 to 1000 nM.
`COc1c(F)cc(O[C@H]2C[C@H](Nc3nc(C)c4c(n3)N(C)[C@@H](C)C(=O)N4)C2)cc1F` [Compound 287, (7S)-2-((trans-3-(3,5-difluoro-4-methoxyphenoxy)cyclobutyl)amino)-4,7,8-trimethyl-7,8-dihydropteridin-6(5H)-one] showed an IC50 (Homo sapiens, COLO 205, 5 h) of less than 300 nM.
`COCC1(C)C(=O)Nc2c(C)nc(N[C@H]3C[C@H](Oc4cnc(C(F)(F)F)nc4)C3)nc2N1C` (relative stereo) [Compound 706, 7-(methoxymethyl)-4,7,8-trimethyl-2-((trans-3-((2-(trifluoromethyl)pyrimidin-5-yl)oxy)cyclobutyl)amino)-7,8-dihydropteridin-6(5H)-one] showed an IC50 of 300 to 1000 nM.
Compound `Cc1ccc(O[C@H]2C[C@H](Nc3nc(C)c4c(n3)N(C)[C@@H](C)C(=O)N4C)C2)cc1` [Compound 338, (7S)-4,5,7,8-tetramethyl-2-((trans-3-(p-tolyloxy)cyclobutyl)amino)-7,8-dihydropteridin-6(5H)-one] has an IC50 (Homo sapiens, COLO 205, 5 h) of 1000 to 5000 nM.
`COCC1(C)C(=O)Nc2c(C)nc(N[C@H]3C[C@H](Oc4cc(F)c(F)c(F)c4)C3)nc2N1C` (relative stereo) [Compound 720, 7-(methoxymethyl)-4,7,8-trimethyl-2-((trans-3-(3,4,5-trifluorophenoxy)cyclobutyl)amino)-7,8-dihydropteridin-6(5H)-one] gave an IC50 of 300 to 1000 nM.
Compound `C[C@H]1C(=O)Nc2cnc(NCc3cnn(Cc4ncc(F)cn4)c3)nc2N1C` [Compound 165, (7S)-2-(((1-((5-fluoropyrimidin-2-yl)methyl)-1H-pyrazol-4-yl)methyl)amino)-7,8-dimethyl-7,8-dihydropteridin-6(5H)-one] has an IC50 (Homo sapiens, COLO 205, 5 h) of no less than 5000 nM.
`Cc1nc(N[C@H]2C[C@H](NS(=O)(=O)c3cc(F)c(F)c(F)c3)C2)nc2c1NC(=O)[C@H](C)N2C` [Compound 482, 3,4,5-trifluoro-N-(trans-3-(((S)-4,7,8-trimethyl-6-oxo-5,6,7,8-tetrahydropteridin-2-yl)amino)cyclobutyl)benzenesulfonamide] was tested, and the IC50 (Homo sapiens, COLO 205, 5 h) was no less than 5000 nM.
Compound `CO[C@H](C)[C@H]1C(=O)N(C)c2cnc(NCc3cnn(Cc4cc(F)c(F)c(F)c4)c3)nc2N1C` [Compound 21, (7S)-7-((R)-1-methoxyethyl)-5,8-dimethyl-2-(((1-(3,4,5-trifluorobenzyl)-1H-pyrazol-4-yl)methyl)amino)-7,8-dihydropteridin-6(5H)-one] has an IC50 (Homo sapiens, COLO 205, 5 h) of less than 300 nM.
Compound `Cc1nc(N[C@H]2C[C@@H](Sc3cc(F)c(F)c(F)c3)C2)nc2c1N(C)C(=O)[C@H](C)N2C` [Compound 331, (7S)-4,5,7,8-tetramethyl-2-((cis-3-((3,4,5-trifluorophenyl)thio)cyclobutyl)amino)-7,8-dihydropteridin-6(5H)-one] has an IC50 (Homo sapiens, COLO 205, 5 h) of less than 300 nM.
